Consider 13 molecules from ChEMBL document CHEMBL1201862, “PubChem BioAssay data set” (2004).

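Following 48 hours of exposure in 96-well plates, responses at five concentrations were used to interpolate endpoints linearly. GI50: concentration for 50% inhibition of growth.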 Active and inactive are the calls of the source. Cut-off read from the data, not from the text of the source: active = GI50 up to about 1.1 µM and inactive = higher.

Among the test systems are 786-0; SF-268; HT-29; ACHN; SNB-75; K562; KM12; A498; SF-295; OVCAR-8; SK-MEL-2; NCI-H522; HCC 2998; SF-539; NCI/ADR-RES; MDA-MB-435; DU-145; MDA-MB-231; T47D.
Common to all, as to assay: NCI tumour cell line growth inhibition, 48 h

In the case of `CCOC(=O)C1Nc2ccccc2[C@H]2OCC[C@@H]12` (some centres not stated), the GI50 in the assay with 786-0, in the assay with SF-268, with HT-29, in the assay with ACHN, in the assay on SNB-75 and with K562 was > 100 µM (inactive) in each case. The GI50 in the assay with KM12 was > 100 µM (inactive); with A498, > 100 µM (inactive); in the assay on SF-295 it was > 100 µM (inactive); in the assay with OVCAR-8, > 100 µM (inactive); with SK-MEL-2, 0.0596 µM (active); in the assay on NCI-H522, > 100 µM (inactive). Also, the GI50 in the assay with HCC 2998 and in the assay on SF-539 was > 100 µM (inactive) in each case.

For `O=C1CNNC(Cn2nc(-c3ccccc3)c3ccccc3c2=O)=N1`, the GI50 in the assay on 786-0 was > 100 µM (inactive); in the assay with SF-268 it was > 100 µM (inactive); in the assay with HT-29, > 100 µM (inactive); with ACHN, > 100 µM (inactive); in the assay with SNB-75, 83 µM (inactive); in the assay on K562, > 100 µM (inactive). The GI50 in the assay on KM12, with A498, in the assay with SF-295, with OVCAR-8, in the assay on SK-MEL-2 and with NCI-H522 was > 100 µM (inactive) in each case. Moreover, the GI50 with HCC 2998 and in the assay on SF-539 was > 100 µM (inactive) each time.

In the case of `Cc1cccc(C(C)C)c1NC(=O)CC1C(=O)Nc2ccccc2S1(=O)=O` (configuration not stated), the GI50 with 786-0 is 13.9 µM (inactive); with SF-268, 12.8 µM (inactive); in the assay with HT-29 it was 12.6 µM (inactive); with ACHN, 22.9 µM (inactive); in the assay on SNB-75 it was 21.5 µM (inactive); with K562, 2.22 µM (inactive). For the same molecule, the GI50 is 19.4 µM (inactive) in the assay on KM12; 11.7 µM (inactive) in the assay on A498; 18.2 µM (inactive) in the assay with SF-295; 14.4 µM (inactive) in the assay with OVCAR-8; > 38.3 µM (inactive) in the assay with SK-MEL-2; 7.01 µM (inactive) with NCI-H522. Besides, the values for the GI50 with HCC 2998 and in the assay on SF-539 were 22.9 µM (inactive) and 5.77 µM (inactive), respectively.

For the molecule `CC1(C)CCC[C@]2(C)[C@@H]1CC[C@@]13O[C@@H]1C1=C(CO)C(=O)OC1=C[C@@H]23`, the GI50 in the assay on NCI/ADR-RES was 15.8 µM (inactive); in the assay with 786-0, 14.3 µM (inactive); in the assay with MDA-MB-435 it was 20.5 µM (inactive); with SF-268, 15.2 µM (inactive); in the assay with HT-29 it was 14 µM (inactive); in the assay with ACHN, 29.2 µM (inactive). The GI50 was 30.5 µM (inactive) in the assay on SNB-75; 21.4 µM (inactive) in the assay on K562; 11.9 µM (inactive) in the assay on KM12; 18.4 µM (inactive) with DU-145; 27.2 µM (inactive) with A498; 31.1 µM (inactive) with MDA-MB-231. For the same molecule, the GI50 with SF-295 is 16.9 µM (inactive); with SK-MEL-2 it was 22.8 µM (inactive); in the assay on NCI-H522, 10.1 µM (inactive); in the assay with HCC 2998 it was 18.9 µM (inactive).

For the molecule `Fc1cccc(C2SCc3nc4ccccc4n32)c1F` (configuration not stated), the GI50 in the assay on 786-0 is 92.9 µM (inactive); in the assay with SF-268, 98.4 µM (inactive); in the assay on HT-29, 79.4 µM (inactive); in the assay with ACHN it was 48.5 µM (inactive); in the assay on SNB-75, > 100 µM (inactive); in the assay with K562 it was 33 µM (inactive). In addition, the GI50 was 66.1 µM (inactive) with KM12; 42.2 µM (inactive) in the assay on A498; 30.8 µM (inactive) with SF-295; 69.3 µM (inactive) with OVCAR-8; 7.52 µM (inactive) in the assay on SK-MEL-2; 37.2 µM (inactive) in the assay on NCI-H522. Further, the GI50 in the assay with HCC 2998 and in the assay with SF-539 was > 100 µM (inactive) throughout.

As to `Cc1ccc(NC(=O)/C(C#N)=C/c2ccccc2)c(C)c1`, the GI50 with 786-0, in the assay on SF-268, in the assay on HT-29, in the assay with ACHN, in the assay with SNB-75 and in the assay on K562 was > 100 µM (inactive) throughout. The GI50 in the assay with KM12, with A498, in the assay with SF-295, in the assay on OVCAR-8, in the assay on SK-MEL-2 and in the assay on NCI-H522 was > 100 µM (inactive) in each case. In addition, the GI50 with HCC 2998 and with SF-539 was > 100 µM (inactive) in each case.

On to `COC(=O)C1=C(O)C(O)=C(C(=O)OC)C1`, for which the GI50 with 786-0, with SF-268, in the assay on HT-29, in the assay on ACHN, in the assay on SNB-75 and in the assay on K562 was > 100 µM (inactive) in each case. In addition, the GI50 in the assay on KM12, in the assay on A498, in the assay with SF-295, in the assay on OVCAR-8, in the assay on SK-MEL-2 and in the assay on NCI-H522 was > 100 µM (inactive) each time. For the same molecule, the GI50 in the assay on HCC 2998 and in the assay on SF-539 was > 100 µM (inactive) each time.

Consider `COc1ccc(C(=O)C(c2ccc(OC)cc2)C2C(=O)Oc3ccccc32)cc1` (configuration not stated), for which the GI50 with 786-0, with SF-268, in the assay with HT-29, in the assay with ACHN, in the assay on SNB-75 and in the assay on K562 was > 10 µM (inactive) in each case. In addition, the GI50 in the assay with KM12, in the assay with A498, in the assay with SF-295, in the assay with OVCAR-8, in the assay with SK-MEL-2 and in the assay with NCI-H522 was > 10 µM (inactive) throughout. Also, the GI50 in the assay with HCC 2998 and with SF-539 was > 10 µM (inactive) each time.

As for `O=C(CSc1c2ccccc2nc2ccccc12)Nc1ccccc1-c1ccccc1NC(=O)CSc1c2ccccc2nc2ccccc12`, the GI50 in the assay on 786-0 was 6.76 µM (inactive); with SF-268, 26.8 µM (inactive); in the assay with HT-29, 34.8 µM (inactive); in the assay on ACHN, 31.5 µM (inactive); in the assay on SNB-75, 42.2 µM (inactive); with K562, 2.37 µM (inactive). Moreover, the GI50 in the assay on KM12 is 21.5 µM (inactive); in the assay with A498, 23 µM (inactive); in the assay with SF-295 it was 25.6 µM (inactive); in the assay on OVCAR-8, 28.5 µM (inactive); with SK-MEL-2, 17.6 µM (inactive); with NCI-H522 it was 9.42 µM (inactive). The results for the GI50 in the assay with HCC 2998 and in the assay on SF-539 were 17.4 µM (inactive) and 14.4 µM (inactive), respectively.

In the case of `O=C(O)c1cc2ccc(Cl)cc2c(O)c1C1=CCCCC1`, the GI50 in the assay on 786-0 was 52.8 µM (inactive); in the assay on SF-268 it was 52.2 µM (inactive); in the assay on HT-29 it was 46.1 µM (inactive); with ACHN it was 65 µM (inactive); in the assay with SNB-75, 19.4 µM (inactive); with K562, 33.1 µM (inactive). Further, the GI50 with KM12 was 42.4 µM (inactive); in the assay with A498 it was 32.6 µM (inactive); in the assay with SF-295, 32.3 µM (inactive); with OVCAR-8, 40.4 µM (inactive); with SK-MEL-2 it was 19.9 µM (inactive); in the assay on NCI-H522, 29 µM (inactive). Moreover, the GI50 in the assay on HCC 2998 is > 100 µM (inactive); in the assay with SF-539, 36.6 µM (inactive).

Turning to `O=C(Cc1ccccc1)C(c1ccccc1)S(=O)(=O)c1ccccc1` (configuration not stated), the GI50 was > 100 µM (inactive) with 786-0; > 100 µM (inactive) with SF-268; > 100 µM (inactive) in the assay with HT-29; > 100 µM (inactive) with ACHN; 23 µM (inactive) in the assay with SNB-75; 93.3 µM (inactive) with K562. Besides, the GI50 with KM12 was > 100 µM (inactive); in the assay on A498 it was > 100 µM (inactive); in the assay with SF-295, > 100 µM (inactive); in the assay on OVCAR-8, > 100 µM (inactive); with SK-MEL-2, > 100 µM (inactive); in the assay with NCI-H522, 88.7 µM (inactive). Moreover, the GI50 in the assay on HCC 2998 and in the assay with SF-539 was > 100 µM (inactive) in each case.

`O=C1Nc2ccc(Br)cc2/C1=N/Nc1ccc([N+](=O)[O-])cc1`: the GI50 was 11.4 µM (inactive) in the assay on 786-0; 17.5 µM (inactive) in the assay on SF-268; 57.9 µM (inactive) with HT-29; 18.5 µM (inactive) in the assay with ACHN; 19.3 µM (inactive) with SNB-75; 19.6 µM (inactive) in the assay with K562. Moreover, the GI50 is 24.6 µM (inactive) in the assay on KM12; 20.7 µM (inactive) in the assay with A498; 11.6 µM (inactive) in the assay with SF-295; 14.4 µM (inactive) in the assay on OVCAR-8; 31 µM (inactive) in the assay with SK-MEL-2; 31.3 µM (inactive) with NCI-H522. Besides, the GI50 with HCC 2998 was 33.3 µM (inactive); with SF-539, 14.2 µM (inactive).

As for `C/C(=N\NC(=S)N1CCN(C)CC1)c1nc2cccnc2[nH]1`, the GI50 in the assay on NCI/ADR-RES, in the assay on 786-0, with MDA-MB-435, with SF-268, in the assay on HT-29 and with ACHN was > 100 µM (inactive) throughout. For the same molecule, the GI50 is > 100 µM (inactive) in the assay on SNB-75; 92.3 µM (inactive) in the assay with K562; > 100 µM (inactive) in the assay on KM12; > 100 µM (inactive) with A498; > 100 µM (inactive) with MDA-MB-231; 52.1 µM (inactive) in the assay with T47D. In addition, the GI50 in the assay with SF-295, with OVCAR-8, in the assay with NCI-H522, in the assay with HCC 2998 and with SF-539 was > 100 µM (inactive) in each case.
